From paper PMC11372837, “Albumin-Mediated Drug Uptake by Organic Anion Transporter 1/3 Is Real: Implications for the Prediction of Active Renal Secretion Clearance” (Molecular Pharmaceutics, 2024)
Where “and” joins values, the source holds several entries; their conditions need not be identical. Equal values may be shown once. Read-outs that look alike come from different tables or passages of the source.

Tests used:
human serum albumin = human serum albumin (Homo sapiens, UniProt P02768); assay: Extent of albumin binding: high throughput equilibrium dialysis (fu,inc, Kd); format: in vitro ADME; settings: for Kd: estimated using eq 3 from measured fu,inc; for fraction unbound at 6 h: human
Sequence of human serum albumin (P02768 25-609): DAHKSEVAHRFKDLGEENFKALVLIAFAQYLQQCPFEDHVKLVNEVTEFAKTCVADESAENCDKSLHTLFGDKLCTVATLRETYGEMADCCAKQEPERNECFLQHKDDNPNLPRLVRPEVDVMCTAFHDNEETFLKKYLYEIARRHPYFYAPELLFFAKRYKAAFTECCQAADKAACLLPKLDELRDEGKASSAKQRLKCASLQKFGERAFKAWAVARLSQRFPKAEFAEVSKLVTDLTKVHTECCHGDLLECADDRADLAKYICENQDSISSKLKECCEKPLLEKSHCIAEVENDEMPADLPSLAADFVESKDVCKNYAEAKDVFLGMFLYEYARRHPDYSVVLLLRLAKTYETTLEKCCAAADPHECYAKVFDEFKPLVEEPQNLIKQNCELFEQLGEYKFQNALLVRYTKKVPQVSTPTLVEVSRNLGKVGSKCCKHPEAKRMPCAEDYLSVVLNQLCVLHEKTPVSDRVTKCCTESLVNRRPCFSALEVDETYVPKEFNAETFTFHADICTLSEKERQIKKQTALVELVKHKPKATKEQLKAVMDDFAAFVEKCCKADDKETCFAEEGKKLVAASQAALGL
Protocol: Briefly, cellulose membranes with MWCO of 12–14 kDa were submerged in distilled water for 1 h, followed by 20% ethanol/distilled water for at least 20 min. Prior to the start of the experiment, cellulose membranes were rinsed in distilled water and submerged in blank DPBS for 15 min. The HTDialysis device was assembled according to the manufacturer’s instructions (https://www.htdialysis.com). Blank DPBS was first added to the receiver side of the dialysis membranes, followed by DPBS spiked with HSA and the OAT1/3 substrate to the donor side. Each HSA concentration was tested in triplicates. The HTDialysis device was sealed with an adhesive sealing film and incubated in a water bath at 37 °C for 6 h shaken at 150 rpm. Once the assay was completed, aliquots from both receiver and donor wells were transferred to a 96-well plate and stored at −80 °C until analysis. DPBS spiked with the OAT1/3 substrate from both before and after incubation was stored to assess the recovery and stability of the samples. To prepare the sample for analysis, donor and receiver samples were matrix-matched and quenched with ice-cold acetonitrile containing an internal standard (0.5 μM gemfibrozil or 0.05 μM buspirone).

OAT1/3 [1] = assay: Bottom-up IVIVE of CLint,sec, CLsec and CLr, relative expression factor (REF) approach; set-up: species or system human; settings: for CLint,sec Predicted 0% HSA / CLint,sec Predicted 1% HSA / CLint,sec Predicted 4% HSA / CLsec Predicted 0% HSA / CLsec Predicted 1% HSA / CLsec Predicted 4% HSA: REF approach
Text: (§1) The relative expression and relative activity factor (REF and RAF) are unitless scalers that account for in vivo versus in vitro differences in the abundance and activity of OAT1/3 and are used for IVIVE of in vitro CLint,u,active. REF was derived from the OAT1/3 expression ratio between the in vivo human kidney cortex to the in vitro ciPTEC-OAT1/3, as shown in eq 7: [drawing 8] 7 Absolute abundance of OAT1 and OAT3 in the human kidney cortex was previously quantified by our group using the filter-aided sample preparation protocol and global proteomic analysis.[44]

OAT1/3 [2] = assay: Bottom-up IVIVE of CLint,sec, CLsec and CLr, relative activity factor (RAF) approach; set-up: species or system human
Text: as §1

[3] = in vivo, plasma renal clearance, clinical data; cited from earlier work
OAT1 = molecular target: T1, OAT1 (Homo sapiens, UniProt Q4U2R8); assay: OAT1 uptake study in ciPTEC-OAT1; settings: for ratio of CLint,u,active (R) (HSA/control) 1%: OAT1, 1% HSA vs control; for ratio of CLint,u,active (R) (HSA/control) 1% / ratio of CLint,u,active (R) (HSA/control) 4%: unbound concentration kept constant; for ratio of CLint,u,active (R) (HSA/control) 4%: OAT1, 4% HSA vs control; for OAT1 substrate status (uptake in ciPTEC-OAT1): control vs probenecid 300 μM; for Vb,max OAT1, Active and Passive Uptake: eq 4 fitted to CLint,u; for Vb,max OAT1, Active and Passive Uptake / Vb,max OAT1, Active Uptake Only: mean ± S.D.; for Vb,max OAT1, Active Uptake Only: eq 4 fitted to CLint,u,active, Kd,m fixed from OAT3 data; for Change to passive diffusion clearance upon inclusion of 1% HSA: probenecid condition, preliminary experiments
T1 sequence (Q4U2R8 1-563): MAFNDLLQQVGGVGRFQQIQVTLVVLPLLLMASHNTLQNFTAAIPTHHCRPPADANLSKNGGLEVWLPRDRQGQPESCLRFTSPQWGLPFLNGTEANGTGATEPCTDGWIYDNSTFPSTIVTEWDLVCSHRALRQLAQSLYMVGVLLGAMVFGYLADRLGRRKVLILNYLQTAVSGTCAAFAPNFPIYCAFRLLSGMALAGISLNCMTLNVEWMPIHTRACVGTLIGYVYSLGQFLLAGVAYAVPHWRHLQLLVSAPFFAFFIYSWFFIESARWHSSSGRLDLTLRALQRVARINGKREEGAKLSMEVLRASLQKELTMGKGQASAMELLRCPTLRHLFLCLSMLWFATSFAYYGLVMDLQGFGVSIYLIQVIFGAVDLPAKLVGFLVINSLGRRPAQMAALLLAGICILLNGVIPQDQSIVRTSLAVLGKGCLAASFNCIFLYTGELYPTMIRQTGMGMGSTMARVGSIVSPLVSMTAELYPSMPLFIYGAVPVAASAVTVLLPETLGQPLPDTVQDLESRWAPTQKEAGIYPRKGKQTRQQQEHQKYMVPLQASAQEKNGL

OAT3 = molecular target: T2, OAT3 (Homo sapiens, UniProt Q8TCC7); assay: OAT3 uptake study in ciPTEC-OAT3; settings: for ratio of CLint,u,active (R) (HSA/control) 1%: OAT3, 1% HSA vs control; for ratio of CLint,u,active (R) (HSA/control) 4%: OAT3, 4% HSA vs control; for OAT3 substrate status (uptake in ciPTEC-OAT3): control vs probenecid 300 μM; for Vb,max OAT3, Active and Passive Uptake: eq 4 fitted to CLint,u; for Vb,max OAT3, Active and Passive Uptake / Vb,max OAT3, Active Uptake Only: mean ± S.D.; for Vb,max OAT3, Active Uptake Only: eq 4 fitted to CLint,u,active
T2 sequence (Q8TCC7 1-542): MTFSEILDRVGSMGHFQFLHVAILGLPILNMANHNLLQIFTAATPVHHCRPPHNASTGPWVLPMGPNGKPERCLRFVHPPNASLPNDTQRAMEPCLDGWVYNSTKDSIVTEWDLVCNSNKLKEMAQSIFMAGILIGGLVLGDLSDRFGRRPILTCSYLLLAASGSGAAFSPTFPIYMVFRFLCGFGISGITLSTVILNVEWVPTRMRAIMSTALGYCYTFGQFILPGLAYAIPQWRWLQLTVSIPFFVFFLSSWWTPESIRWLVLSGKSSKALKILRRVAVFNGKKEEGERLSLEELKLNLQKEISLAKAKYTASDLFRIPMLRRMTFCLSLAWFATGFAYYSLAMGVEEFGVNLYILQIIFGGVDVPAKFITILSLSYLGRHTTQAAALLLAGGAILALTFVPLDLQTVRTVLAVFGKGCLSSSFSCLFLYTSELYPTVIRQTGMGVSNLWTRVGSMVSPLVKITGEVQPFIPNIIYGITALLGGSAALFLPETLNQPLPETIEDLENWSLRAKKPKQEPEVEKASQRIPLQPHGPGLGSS

[4] = Observed in vivo (clinical) renal, secretion and intrinsic secretion clearance; settings: in vivo; for CLint,sec Observed: back-calculated from clinical data; for CLsec Observed: plasma secretion clearance
[5] = human, in vivo
[6] = 1% human serum albumin in DPBS, 1% HSA, equilibrium dialysis 37 °C 6 h, mean ± SD, read-out: fu,inc (1%)
[7] = 4% HSA in DPBS, 4% HSA, equilibrium dialysis 37 °C 6 h, mean ± SD, read-out: fu,inc (4%)

CCCc1nc(C(C)(C)O)c(C(=O)O)n1Cc1ccc(-c2ccccc2-c2nnn[nH]2)cc1 [olmesartan]
Kd (human serum albumin; mean ± SD): 1.43 ± 0.1 µM | fraction unbound at 6 h (human serum albumin; [6]): 0.011 ± 0.001 | fraction unbound at 6 h (human serum albumin; [7]): 0.002 ± 0.0002 | Predicted in vivo percentage transported via OAT1 (versus OAT3) (OAT1/3 [1]; 4% HSA, REF scaler): 33.1% | CLint,sec Predicted 0% HSA (OAT1/3 [1]): 7.92 L/h | CLint,sec Predicted 1% HSA (OAT1/3 [1]): 85.2 L/h | CLint,sec Predicted 4% HSA (OAT1/3 [1]): 284 L/h | CLsec Predicted 0% HSA (OAT1/3 [1]): 0.02 L/h | CLsec Predicted 1% HSA (OAT1/3 [1]): 0.22 L/h | CLsec Predicted 4% HSA (OAT1/3 [1]): 0.74 L/h | Predicted in vivo percentage transported via OAT1 (versus OAT3) (OAT1/3 [1]; control phase (0% HSA)): 7.9% | CLint,sec Predicted 0% HSA (OAT1/3 [2]): 34.2 L/h | CLint,sec Predicted 1% HSA (OAT1/3 [2]): 355 L/h | CLint,sec Predicted 4% HSA (OAT1/3 [2]): 976 L/h | CLsec Predicted 0% HSA (OAT1/3 [2]): 0.09 L/h | CLsec Predicted 1% HSA (OAT1/3 [2]): 0.92 L/h | CLsec Predicted 4% HSA (OAT1/3 [2]): 2.40 L/h | CLr Observed [3]: 0.61 L/h | ratio of CLint,u,active (R) (HSA/control) 1% (OAT1): 17.9 ± 4.0 | ratio of CLint,u,active (R) (HSA/control) 4% (OAT1): 122 and 122 ± 42 | OAT1 substrate status (uptake in ciPTEC-OAT1) (OAT1): dual OAT1/3 substrates | Vb,max OAT1, Active and Passive Uptake (OAT1): 75.7 ± 15.5 pmol/min/mg | Vb,max OAT1, Active Uptake Only (OAT1): 72.7 ± 15.0 pmol/min/mg | ratio of CLint,u,active (R) (HSA/control) 1% (OAT3): 10.5 ± 2.3 | ratio of CLint,u,active (R) (HSA/control) 4% (OAT3): 28 and 28.1 ± 3.0 | OAT3 substrate status (uptake in ciPTEC-OAT3) (OAT3): dual OAT1/3 substrates | Vb,max OAT3, Active and Passive Uptake (OAT3): 46.2 ± 12.3 pmol/min/mg | Vb,max OAT3, Active Uptake Only (OAT3): 44.2 ± 12.3 pmol/min/mg | CLint,sec Observed [4]: 229 L/h | CLint,sec Observed ([4]; listed as Olmesartan): 228 L/h | CLsec Observed [4]: 0.59 L/h

Cc1ncc(CO)c(C(=O)O)c1O [4-pyridoxic acid]
Kd (human serum albumin; mean ± SD): 56.4 ± 2.5 µM | fraction unbound at 6 h (human serum albumin; 0.5% HSA in DPBS, 0.5% HSA, mean ± S.D., read-out: fu,inc): 0.4 ± 0.042 | fraction unbound at 6 h (human serum albumin; [6]): 0.298 ± 0.005 | fraction unbound at 6 h (human serum albumin; 2% HSA in DPBS, 2% HSA, mean ± S.D., read-out: fu,inc): 0.163 ± 0.005 | fraction unbound at 6 h (human serum albumin; [7]): 0.079 ± 0.006 | CLint,sec Predicted 0% HSA (OAT1/3 [1]): 3.46 L/h | CLint,sec Predicted 1% HSA (OAT1/3 [1]): 7.85 L/h | CLint,sec Predicted 4% HSA (OAT1/3 [1]): 12.6 L/h | CLsec Predicted 0% HSA (OAT1/3 [1]): 0.29 L/h | CLsec Predicted 1% HSA (OAT1/3 [1]): 0.66 L/h | CLsec Predicted 4% HSA (OAT1/3 [1]): 1.05 L/h | Predicted CLr, CLsec and CLint,sec as % of observed (OAT1/3 [1]; regardless of albumin inclusion and of RAF/REF approach): < 20% | CLint,sec Predicted 0% HSA (OAT1/3 [2]): 8.79 L/h | CLint,sec Predicted 1% HSA (OAT1/3 [2]): 22.1 L/h | CLint,sec Predicted 4% HSA (OAT1/3 [2]): 32.6 L/h | CLsec Predicted 0% HSA (OAT1/3 [2]): 0.74 L/h | CLsec Predicted 1% HSA (OAT1/3 [2]): 1.79 L/h | CLsec Predicted 4% HSA (OAT1/3 [2]): 2.57 L/h | CLr Observed [3]: 15.6 L/h | fold increase in OAT1 CLint,u,active versus control (OAT1; 0.5% HSA, total concentration constant at 10 µM, preliminary): 1.50 fold | fold increase in OAT1 CLint,u,active versus control (OAT1; 0.5% HSA, unbound concentration constant at 1.0 µM): 1.50 fold | fold increase in OAT1 CLint,u,active versus control (OAT1; 1.0% HSA, total concentration constant at 10 µM, preliminary): 1.82 fold | fold increase in OAT1 CLint,u,active versus control (OAT1; 2.0% HSA, total concentration constant at 10 µM, preliminary): 0.93 fold | fold increase in OAT1 CLint,u,active versus control (OAT1; 2.0% HSA, unbound concentration constant at 1.0 µM): 1.79 fold | fold increase in OAT1 CLint,u,active versus control (OAT1; 4.0% HSA, total concentration constant at 10 µM, preliminary): 2.2 fold | ratio of CLint,u,active (R) (HSA/control) 1% (OAT1): 1.92 ± 0.65 | ratio of CLint,u,active (R) (HSA/control) 1% (OAT1; listed as PDA): 1.92 | ratio of CLint,u,active (R) (HSA/control) 4% (OAT1): 3.46 ± 0.47 | ratio of CLint,u,active (R) (HSA/control) 4% (OAT1; listed as PDA): 3.46 | unbound passive diffusion clearance (CLpd) (OAT1; ciPTEC-OAT1, 300 µM probenecid): 0.031 µL/min/mg | unbound passive diffusion clearance (CLpd) (OAT1; ciPTEC-OAT1, 1.0% HSA + 300 µM probenecid): 0.039 µL/min/mg | OAT1 substrate status (uptake in ciPTEC-OAT1) (OAT1): dual OAT1/3 substrates | Vb,max OAT1, Active and Passive Uptake (OAT1): 222 ± 24.6 pmol/min/mg | Vb,max OAT1, Active Uptake Only (OAT1): 213 ± 24 pmol/min/mg | Change to passive diffusion clearance upon inclusion of 1% HSA (OAT1): minimal change | Change to passive diffusion clearance upon inclusion of 1% HSA (OAT1; listed as PDA): minimal changes | ratio of CLint,u,active (R) (HSA/control) 1% (OAT3): 2.64 ± 1.12 | ratio of CLint,u,active (R) (HSA/control) 4% (OAT3): 3.85 ± 1.30 | OAT3 substrate status (uptake in ciPTEC-OAT3) (OAT3): dual OAT1/3 substrates | Vb,max OAT3, Active and Passive Uptake (OAT3): 53.1 ± 17.1 pmol/min/mg | Vb,max OAT3, Active Uptake Only (OAT3): 51.9 ± 15.8 pmol/min/mg | CLint,sec Observed [4]: 340 L/h | CLsec Observed [4]: 14.8 L/h

CCCN(CCC)S(=O)(=O)c1ccc(C(=O)O)cc1 [probenecid]
Effect on OAT3-mediated uptake of the substrates (OAT3; probenecid 300 μM, 0% HSA): significantly reduced

NS(=O)(=O)c1cc(C(=O)O)c(NCc2ccco2)cc1Cl [furosemide]
CLsec Observed [5]: 5.07 L/h | Vb,max OAT3, Active and Passive Uptake (OAT3): 478 ± 139 pmol/min/mg | Vb,max OAT3, Active Uptake Only (OAT3): 453 ± 127 pmol/min/mg
